This passage reports IC50 results from ChEMBL document CHEMBL1817616, “Synthesis, characterization and biological evaluation of some 16β-azolyl-3β-amino-5α-androstane derivatives as potential anticancer agents” (Eur J Med Chem, 2011).

For one assay, the system named is HeLa. Briefly: Anticancer activity against human HeLa cells after 48 hrs by MTT assay. It counts as functional, cell-based. On the technique in general: Formazan colour is commonly taken as a measure of viable cells.
A further assay concerns HEK293. Briefly: Cytotoxicity against human HEK293 cells after 48 hrs by MTT assay. It counts as cell-based. The following applies: HEK293, 48 h.
A further assay concerns A549. The assay can be described thus: Anticancer activity against human A549 cells after 48 hrs by MTT assay. It counts as functional, cell-based. The following applies: A549, 48 h.
For another assay, the system named is HepG2. Briefly: Anticancer activity against human HepG2 cells after 48 hrs by MTT assay. It counts as functional, cell-based. The following applies: HepG2, 48 h.
For a further assay, the system named is SW480. The assay can be described thus: Anticancer activity against human SW480 cells after 48 hrs by MTT assay. It counts as functional, cell-based. The settings on record: SW480, 48 h.
The subject of another assay is SiHa. Briefly: Anticancer activity against human SiHa cells after 48 hrs by MTT assay. The format is functional, cell-based.

A value given as a limit tells only on which side of the number the result lay.

Take `CC(=O)O[C@H]1[C@@H](n2nnc3ccccc32)C[C@H]2[C@@H]3CC[C@H]4C[C@@H](N(C)c5ccccc5)CC[C@]4(C)[C@H]3CC[C@@]21C`: the 50% inhibitory concentration (IC50) is 10.4 µM with HeLa; greater than 80 µM in the assay with HEK293; 5.12 µM in the assay on A549; 6.36 µM in the assay on HepG2; 18.6 µM with SW480; 9.83 µM in the assay on SiHa.
Turning to `CC(=O)O[C@H]1[C@@H](n2cnc3ccccc32)C[C@H]2[C@@H]3CC[C@H]4C[C@@H](N(C)c5ccccc5)CC[C@]4(C)[C@H]3CC[C@@]21C`, the concentration for half-maximal inhibition (IC50) was 4.51 µM with HeLa; greater than 80 µM in the assay with HEK293; 28.4 µM in the assay on A549; greater than 50 µM with HepG2; 9.22 µM in the assay on SW480; 6.67 µM in the assay with SiHa.

For orientation: IC50 means the midpoint of a concentration-inhibition curve. Low values mean higher potency, high ones lower potency.
